Tests used:
[1] = target: T1, trypanothione reductase (Trypanosoma cruzi, UniProt P28593); assay: crystal structure of the covalent adduct at […] Å; format: biochemical; details: read-out: Ki
[2] = target: T1, trypanothione reductase; assay: protection of oxidised enzyme from QM inactivation; format: biochemical

T1 sequence (P28593 whole entry): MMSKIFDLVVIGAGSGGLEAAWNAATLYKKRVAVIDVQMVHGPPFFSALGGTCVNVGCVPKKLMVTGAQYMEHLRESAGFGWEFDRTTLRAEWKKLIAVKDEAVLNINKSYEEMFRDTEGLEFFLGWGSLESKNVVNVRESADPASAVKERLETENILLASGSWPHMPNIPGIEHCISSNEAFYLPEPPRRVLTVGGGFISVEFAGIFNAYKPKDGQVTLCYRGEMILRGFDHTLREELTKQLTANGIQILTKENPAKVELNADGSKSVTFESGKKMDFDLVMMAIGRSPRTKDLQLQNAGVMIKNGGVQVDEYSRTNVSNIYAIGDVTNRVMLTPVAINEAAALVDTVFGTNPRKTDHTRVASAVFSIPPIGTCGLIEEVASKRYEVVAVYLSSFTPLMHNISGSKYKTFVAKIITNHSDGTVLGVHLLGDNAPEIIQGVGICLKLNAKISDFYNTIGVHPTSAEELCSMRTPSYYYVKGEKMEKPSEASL

| SMILES | KI (inactivation) [1] [µM] | Ki [2] [µM] |
| --- | --- | --- |
| COc1ccc2nc3cc(Cl)ccc3c(NC(C)CCCN(CCCl)CCCl)c2c1 (racemic) [QM, quinacrine mustard] | 41 ± 8 | – |
| CCN(CC)CCCC(C)Nc1c2ccc(Cl)cc2nc2ccc(OC)cc12 (centres unmarked) [quinacrine] | – | 208 ± 45 |
